Experimental data as given in ChEMBL document CHEMBL1124030, “Synthesis and biological activity of the four stereoisomers of 6-[4-[3-[[2-hydroxy-3-[4-[2- (cyclopropylmethoxy)ethyl]phenoxy]propyl]amino]-propionamido] phenyl]-5-methyl-4,5-dihydro-3(2H)-pyridazinone, a combined vasodilator and beta-adrenoceptor antagonist” (1988).

How the values were obtained:
Type in all cases: functional
Rattus norvegicus [1] = experiment: Dose required to produce a fall in blood pressure of 40 mmHg in the anesthetized normotensive rat
Felis catus = experiment: Dose required to induce 50% inhibition of isoprenaline-induced tachycardia in the ganglion blocked anesthetized cat; settings: read-out: ID50 (the source's name)
Rattus norvegicus [2] = experiment: Dose required to produce a 50% increase in blood flow to the autoperfused hindquarters of the anesthetized normotensive rat

SMILES	ED40 (Rattus norvegicus [1])	ED50 (Felis catus)	ED50 (Rattus norvegicus [2])
C[C@@H]1CC(=O)NN=C1c1ccc(NC(=O)CCNC[C@H](O)COc2ccc(CCOCC3CC3)cc2)cc1	2.4 µM/kg	1.7 µmol/kg	1 µmol/kg
C[C@@H]1CC(=O)NN=C1c1ccc(NC(=O)CCNC[C@@H](O)COc2ccc(CCOCC3CC3)cc2)cc1	4.9 µM/kg	20.2 µmol/kg	0.9 µmol/kg
C[C@H]1CC(=O)NN=C1c1ccc(NC(=O)CCNC[C@H](O)COc2ccc(CCOCC3CC3)cc2)cc1	>40 µM/kg	1.6 µmol/kg	> 40 µmol/kg
C[C@H]1CC(=O)NN=C1c1ccc(NC(=O)CCNC[C@@H](O)COc2ccc(CCOCC3CC3)cc2)cc1	20 µM/kg	8.6 µmol/kg	> 40 µmol/kg
CC1CC(=O)NN=C1c1ccc(NC(=O)CCNCC(O)COc2ccc(CCOCC3CC3)cc2)cc1 (stereo not given)	2.4 µM/kg	1.7 µmol/kg	1.6 µmol/kg
